pKi: −log10 of the molar value. Structures can show the parent of a compound that is named as a salt. Where two headings read alike, the source gives them in different places.
Target: T1, HIV protease (Human immunodeficiency virus type 1 group M subtype B, UniProt P04585)
T1 construct: A third viral enzyme known as protease then cleaves the polyproteins
Experiment: Enzymatic Assay for Determining the Inhibition Constant (Ki) of Synthetic Compounds Targeting the HIV Protease (fluorometric FRET assay)
Assay type: biochemical
Excerpt: Enzymatic Assay for Determining the Inhibition Constant (Ki) of Synthetic Compounds Targeting the HIV Protease
This is a fluorometric assay based on the cleavage by protease of a substrate carrying a donor group (EDANS) and an acceptor group (DABCYL) on each side of the cleavage site, interacting together through fluorescence resonance energy transfer (FRET) as described by Matayoshi et al. (Science 247:[…], 1990).
After calculation of Vo and Vi, the inhibition constant (Ki) of the compound is determined using the equation of Henderson: [formula]
where Vo=the enzyme's initial velocity
Vi=the enzyme velocity in the presence of the inhibitory compound,
[I]=inhlibitor concentration, [S]=substrate concentration,
Km=Michaelis-Menten constant and Kiapp=apparent Ki
Graphs are traced and the Ki determined using GraphPad Prism software v. 3.0.

[1] = Table 1, compounds of formula I, read-out: Ki (anti-protease activity)
[2] = Anti-protease activity of Ne-amino acid substituted L-lysine derivatives and analogs of formula I, read-out: Ki

Row | SMILES | pKi | other results
1 | Cc1ccc(S(=O)(=O)N(CC(C)C)[C@@H](CCCCNC(=O)[C@H](CC(C)C)NS(=O)(=O)c2ccccc2)C(=O)O)cc1 [Example 22, Nα-Isobutyl-Nα-(4-methylbenzenesulfonyl)-Nε-(N′α-benzenesulfonyl-L-leucyl]-L-lysine] | 7.54 | 
2 | Cc1ccc(S(=O)(=O)N(CC(C)C)[C@@H](CCCCNC(=O)[C@H](Cc2ccccc2)NS(=O)(=O)c2ccc(Cl)cc2)C(=O)O)cc1 [Example 9, Nα-Isobutyl-Nα-(4-methylbenzenesulfonyl)-Nε-[N′α-(4-chlorobenzenesulfonyl)-L-phenylalanyl]-L-lysine] | 8.17 | 
3 | Cc1ccc(S(=O)(=O)N(CC(C)C)[C@@H](CCCCNC(=O)[C@H](Cc2ccc(OCc3ccccc3)cc2)NC(=O)OC(C)(C)C)C(=O)O)cc1 [Example 87, Nα-Isobutyl-Nα-(4-methylbenzenesulfonyl)-Nε-(N′α-tert-butoxycarbonyl-O-benzyl-L-tyrosyl)-L-lysine] | 7.31 | 
4 | COc1ccc(CC(=O)N[C@@H](Cc2ccccc2)C(=O)NCCCC[C@@H](C(=O)O)N(CC(C)C)S(=O)(=O)c2ccc(N)cc2)cc1 [Example 163, Nα-(4-Aminobenzenesulfonyl)-Nα-isobutyl-Nε-[N′α-(4-methoxyphenylacetyl)-L-phenylalanyl]-L-lysine] | 9.57 | 
5 | Cc1ccc(S(=O)(=O)NCC(=O)NCCCC[C@@H](C(=O)O)N(CC(C)C)S(=O)(=O)c2ccc(C)cc2)cc1 [Example 21, Nα-Isobutyl-Nα-(4-methylbenzenesulfonyl)-Nε-[N′α-(4-methylbenzenesulfonyl)-glycyl]-L-lysine] | 7.68 | 
6 | Cc1ccc(S(=O)(=O)N(CC(C)C)[C@H](CO)CCCCNC(=O)[C@H](Cc2ccc(C(C)(C)C)cc2)NC(=O)OC(C)(C)C)cc1 [Example 142, (2S,2′S) 2-N-Isobutyl-2-N-(4-methylbenzenesulfonyl)-6-N-(N′α-tert-butoxycarbonyl-S-4-tert-butylphenylalanyl)-2,6-diaminohexanol] | 7.03 | 
7 | CC(C)CN([C@H](CO)CCCCNC(=O)[C@H](Cc1c[nH]c2ccccc12)NC(=O)N1CCOCC1)S(=O)(=O)c1ccc(N)cc1 [Example 170, (2S,2′S) 2-N-(4-Aminobenzenesulfonyl)-2-N-isobutyl-6-N-[N′α-(4-morpholinecarbonyl)-S-tryptophanyl]-2,6-diaminohexanol] |  | pKi [1]: 8.96
8 | CC(=O)Nc1ccc(S(=O)(=O)N[C@@H](Cc2ccccc2)C(=O)NCCCC[C@@H](C(=O)O)N(CC(C)C)S(=O)(=O)c2ccc([N+](=O)[O-])cc2)cc1 [Example 28, Nα-Isobutyl-Nα-(4-nitrobenzenesulfonyl)-Nε-[N′α-(4-acetamidobenzenesulfonyl)-L-phenylalanyl]-L-lysine] | 8.03 | 
9 | Cc1ccc(S(=O)(=O)N(CC(C)C)[C@@H](CCCCNC(=O)[C@@H](N)Cc2cn(Cc3ccccc3)cn2)C(=O)O)cc1 [Example 92, Nα-Isobutyl-Nα-(4-methylbenzenesulfonyl)-Nε-(Nτ-benzyl-L-histidinyl)-L-lysine] | < 6.52 | 
10 | Cc1ccc(S(=O)(=O)N(CC(C)C)[C@@H](CCCCNC(=O)CNCCN2CCCCC2)C(=O)O)cc1 [Example 110, Nα-Isobutyl-Nα-(4-methylbenzenesulfonyl)-Nε-[N′α-(piperidinyl-N-ethyl)glycyl]-L-lysine Trifluoroacetic Acid Salt] |  | pKi [1]: < 6.52
11 | Cc1ccc(S(=O)(=O)N(CC(C)C)[C@@H](CCCCNC(=O)[C@H](CO)NC(=O)OCC2c3ccccc3-c3ccccc32)C(=O)O)cc1 [Example 36, Nα-Isobutyl-Nα-(4-methylbenzenesulfonyl)-Nε-[N′α-(9-fluorenylmethoxycarbonyl)-L-seryl]-L-lysine] |  | pKi [2]: 6.79
12 | COc1ccc(CC(=O)N[C@@H](Cc2ccccc2)C(=O)NCCCC[C@@H](C(=O)O)N(CC(C)C)S(=O)(=O)c2ccc(C)cc2)cc1 [Example 132, Nα-Isobutyl-Nα-(4-methylbenzenesulfonyl)-Nε-[N′α-(4-methoxyphenylacetyl)-L-phenylalanyl]-L-lysine] | 9.59 | 
13 | COc1ccc(CC(=O)N[C@@H](Cc2ccccc2)C(=O)NCCCC[C@@H](CO)N(CC(C)C)S(=O)(=O)c2ccc(C)cc2)cc1 [Example 162, (2S,2′S) 2-N-Isobutyl-2-N-(4-methylbenzenesulfonyl)-6-N-[N′α-(4-methoxyphenylacetyl)-S-phenylalanyl]-2,6-diaminohexanol] | 8.92 | 
14 | Cc1ccc(S(=O)(=O)N[C@@H](CCC(N)=O)C(=O)NCCCC[C@@H](C(=O)O)N(CC(C)C)S(=O)(=O)c2ccc(C)cc2)cc1 [Example 34, Nα-Isobutyl-Nα-(4-methylbenzenesulfonyl)-Nε-[N′α-(4-methylbenzenesulfonyl)-L-glutaminyl]-L-lysine] | 7.02 | 
15 | COC(=O)N[C@@H](Cc1c[nH]c2ccccc12)C(=O)NCCCC[C@@H](CO)N(CC(C)C)S(=O)(=O)c1ccc(C)cc1 [Example 190, (2S,2′S) 2-N-Isobutyl-2-N-(4-methylbenzenesulfonyl)-6-N-(N′α-methoxycarbonyl-S-tryptophanyl)-2,6-diaminohexanol] | 8.66 | 
16 | Cc1ccc(S(=O)(=O)N(CC(C)C)[C@H](CO)CCCCNC(=O)[C@H](Cc2cccc(F)c2)NC(=O)OC(C)(C)C)cc1 [Example 139, (2S,2′S) 2-N-Isobutyl-2-N-(4-methylbenzenesulfonyl)-6-N-(N′α-tert-butoxycarbonyl-S-3-fluorophenylalanyl)-2,6-diaminohexanol] | 8.39 | 
17 | Cc1ccc(S(=O)(=O)N(CC(=O)NCCCC[C@@H](C(=O)O)N(CC(C)C)S(=O)(=O)c2ccc(C)cc2)CC(C)C)cc1 [Example 55, Nα-Isobutyl-Nα-(4-methylbenzenesulfonyl)-Nε-[N′α-isobutyl-N′α-(4-methylbenzenesulfonyl)-glycyl]-L-lysine] |  | pKi [2]: 7.85
18 | Cc1ccc(S(=O)(=O)N(CC(C)C)[C@H](CO)CCCCNC(=O)CN(CCc2ccccc2)c2ccccc2)cc1 [Example 160, (2S) 2-N-Isobutyl-2-N-(4-methylbenzenesulfonyl)-6-N-(N′α-phenethyl-N′α-phenylglycyl]-2,6-diaminohexanol] |  | pKi [1]: 7.28
19 | Cc1ccc(S(=O)(=O)N(CC(C)C)[C@H](CO)CCCCNC(=O)[C@H](Cc2ccc(F)cc2)NC(=O)OC(C)(C)C)cc1 [Example 140, (2S,2′S) 2-N-Isobutyl-2-N-(4-methylbenzenesulfonyl)-6-N-(N′α-tert-butoxycarbonyl-S-4-fluorophenylalanyl)-2,6-diaminohexanol] | 8.38 | 
20 | Cc1ccc(S(=O)(=O)N(CC(C)C)[C@@H](CCCCNC(=O)[C@H](Cc2ccccc2)NS(=O)(=O)c2ccc(C(F)(F)F)cc2)C(=O)O)cc1 [Example 23, Nα-Isobutyl-Nα-(4-methylbenzenesulfonyl)-Nε-[N′α-(4-trifluoromethylbenzenesulfonyl)-L-phenylalanyl]-L-lysine] | 7.92 | 
21 | Cc1ccc(S(=O)(=O)N[C@@H](Cc2c[nH]c3ccccc23)C(=S)NCCCC[C@@H](C(=O)O)N(CC(C)C)S(=O)(=O)c2ccc(C)cc2)cc1 [Example 73, Nα-Isobutyl-Nα-(4-methylbenzenesulfonyl)-Nε-[N′α-(4-methylbenzenesulfonyl)-L-thiotryptophanyl]-L-lysine] | 7.85 | 
22 | Cc1ccc(S(=O)(=O)N[C@@H](Cc2c[nH]c3ccccc23)C(=O)NCCCC[C@@H](C(=O)O)N(CC(C)C)S(=O)(=O)c2ccc(C)cc2)cc1 [Example 2, Nα-Isobutyl-Nα-(4-methylbenzenesulfonyl)-Nε-[N′α-(4-methylbenzenesulfonyl)-L-tryptophanyl]-L-lysine] | 9.29 | 
23 | Cc1ccc(S(=O)(=O)N[C@@H](Cc2ccccc2)C(=O)NCCCC[C@@H](C(=O)O)N(CC(C)C)S(=O)(=O)c2ccccc2)cc1 [Example 200, Nα-Benzenesulfonyl-Nα-isobutyl-Nε-[N′α-(4-methylbenzenesulfonyl)-L-phenylalanyl]-L-lysine] | 7.51 | 
24 | COC(=O)N[C@@H](Cc1ccccc1)C(=O)NCCCC[C@@H](CO)N(CC(C)C)S(=O)(=O)c1ccc(N)cc1 [Example 177, (2S,2′S) 2-N-(4-Aminobenzenesulfonyl)-2-N-isobutyl-6-N-(N′α-methoxycarbonyl-S-phenylalanyl)-2,6-diaminohexanol] | 8.18 | 
25 | COc1ccc(CN(CC(=O)NCCCC[C@@H](CO)N(CC(C)C)S(=O)(=O)c2ccc(C)cc2)c2ccccc2)cc1 [Example 175, (2S) 2-N-Isobutyl-2-N-(4-methylbenzenesulfonyl)-6-N-[N′α-(4-methoxybenzyl)-N′α-phenylglycyl]-2,6-diaminohexanol] | 8.20 | 
26 | COc1ccc(CN(CC(=O)NCCCC[C@@H](C(=O)O)N(CC(C)C)S(=O)(=O)c2ccc(C)cc2)c2ccccc2)cc1 [Example 174, Nα-Isobutyl-Nα-(4-methylbenzenesulfonyl)-Nε-[N′α-(4-methoxybenzyl)-N′α-phenylglycyl]-L-lysine] | 8.85 | 
27 | Cc1ccc(S(=O)(=O)N(CC(C)C)[C@@H](CCCCNC(=O)[C@H](CC(N)=O)NC(=O)OCc2ccccc2)C(=O)O)cc1 [Example 48, Nα-Isobutyl-Nα-(4-Methylbenzenesulfonyl)-Nε-(N′α-benzyloxycarbonyl-L-asparagyl)-L-lysine] | 6.94 | 
28 | Cc1ccc(S(=O)(=O)N(CC(C)C)[C@@H](CCCCNC(=O)[C@H](Cc2c[nH]c3ccccc23)NS(=O)(=O)c2ccc([N+](=O)[O-])cc2)C(=O)O)cc1 [Example 6, Nα-Isobutyl-Nα-(4-methylbenzenesulfonyl)-Nε-[N′α-(4-nitrobenzenesulfonyl)-L-tryptophanyl]-L-lysine] | 8.14 | 
29 | Cc1ccc(S(=O)(=O)N(CC(C)C)[C@H](CO)CCCCNC(=O)[C@H](Cc2ccccc2F)NC(=O)OC(C)(C)C)cc1 [Example 138, (2S,2′S) 2-N-Isobutyl-2-N-(4-methylbenzenesulfonyl)-6-N-(N′α-tert-butoxycarbonyl-S-2-fluorophenylalanyl)-2,6-diaminohexanol] | 8.00 | 
